From patent publication US20260355217A1, “HPK1 INHIBITOR, PREPARATION METHOD THEREFOR, AND USE THEREOF” (Beijing Earthwise Technology Co., Ltd., priority 2022, published 2026)

Experiments:
HPK1 = HPK1 (Homo sapiens, UniProt Q92918); assay: HPK1 HTRF Kinase Assay; format: biochemical; conditions: 1000 μM ATP, 50 nM HPK1, STK1 substrate, 120 minutes
Experimental: Assay Example 2 HPK1 HTRF Kinase Assay
The assay was performed in a 384-well plate (Greier, Cat #784075) with a total reaction system of 20 μL. 1×kinase buffer (5*enzyme buffer, 5 mM MgCl2, 0.1% BSA, 1 mM DTT), […] and 1000 µM ATP, and 10 μL of Detection Mix (0.25 nM STK antibody, 62.5 nM XL665) were included in the reaction mixture. The reaction was initiated by adding 50 nM HPK1. After 120 minutes of reaction, the assay was terminated by adding 10 μL of Detection Mix. After being incubated at room temperature for 60 minutes, the assay plate was read by EnVision multi-function microplate reader to read the FRET signal (the ratio of HTRF 665/615 was calculated from the readings at 665 nm and 615 nm).
The ratio of the signal at 665 nm to the signal at 615 nm was converted to the percentage of inhibition. Inhibition %=(maximum value−sample value)/(maximum value−minimum value)×100. The minimum value refers to the value measured in a well without enzyme but with DMSO and substrate, and the maximum value refers to the value measured in a well with DMSO, enzyme and substrate. IC50 values were calculated by XLFit (version 5.3.1.3) in Excel. Equation: Y=Bottom+(Top−Bottom)/(1+(IC50/X)^HillSlope).

[1] = target: T1, pSLP76 (Phospho-SLP-76 (Ser376)), Jurkat E6-1 cells (Homo sapiens, UniProt Q92918); assay: Phospho-SLP-76 (Ser376) HTRF Assay in Jurkat E6-1 cells; format: cell-based; conditions: compound 4 hours, then anti-CD3 20 minutes
T1 construct: read-out phospho-SLP-76 (Ser376) HTRF
Experimental: Assay Example 3 Phospho-SLP-76 (Ser376) HTRF Assay
A compound was dissolved in DMSO to 10 mM, and then diluted three-fold with DMSO to 10 dosages in a 96-well plate. Then, 3 μL of the diluted compound sample was transferred to a 96-well plate with 97 μL of cell culture medium, and the plate was shaken for 5 minutes. According to the experimental design diagram, 7.5 μL of the diluted compound sample was transferred to a cell plate. Final concentrations of the compound in this assay were 10000.00, 3333.33, 1111.11, 370.37, 123.46, 41.15, 13.72, 4.57, 1.52 and 0.51 nM.
In this assay, the density of Jurkat E6-1 cells was maintained between 3*10^5 to 3*10^6 cells/mL. The cell culture was replaced with fresh culture medium every 2 to 3 days (depending on the cell density). 30 μL of Jurkat E6-1 (300,000 cells) was added to a 96-well plate and incubated in a 37 °C incubator for 1 hour. Then, according to the experimental design diagram, compounds (6×, 7.5 μL) were added to treat the cells for 4 hours, respectively. After 4 hours, purified anti-human anti-CD3 antibodies (6×, 7.5 μL) were added to treat the cells for 20 minutes. After 20 minutes, 15 μL of cell lysis buffer (4×) was added, and the cells were lysed at 25 °C with shaking (250 rpm) for 1 hour. Then, according to the experimental design diagram, 16 μL of cell lysate was transferred to a 384-well plate using a pipette. After the transfer, 4 μL of antibody detection mixture was added. After being placed at room temperature overnight, the plate was read by EnVision multi-function microplate reader to read the FRET signal (the ratio of HTRF 665/615 was calculated from the readings at 665 nm and 615 nm).
The ratio of the signal at 665 nm to the signal at 615 nm was converted to the percentage of inhibition. Inhibition %=(maximum value−sample value)/(maximum value−minimum value)×100. The minimum value refers to the signal value of a well without anti-CD3 antibody stimulation during the treatment of cells, and the maximum value refers to the signal value of a well with anti-CD3 antibody stimulation but without the compound during the treatment of cells. IC50 values were calculated by XLFit (version 5.3.1.3) in excel. Equation: Y=Bottom+(Top−Bottom)/(1+(IC50/X)^HillSlope).

[2] = system: human Pan T cells (IL-2 release); assay: Human Pan T Cell IL-2 ELISA; format: cell-based; conditions: Homo sapiens, T-cell, 48 h, Anti-CD3/Anti-CD28, IL-2 ELISA
Experimental: Assay Example 4 Human Pan T Cell IL-2 ELISA
A compound was dissolved in DMSO to 10 mM, and then diluted three-fold with DMSO to 9 dosages in a 96-well plate. Then, 10 μL of the diluted compound sample was transferred to a 96-well plate with 90 μL of cell culture medium, and the plate was shaken for 5 minutes. Then, 5 μL of the diluted compound sample was transferred to a 96-well plate with 120 μL of cell culture medium, and the plate was shaken for 5 minutes. According to the experimental design diagram, 50 μL of the diluted compound sample was transferred to a cell plate. Final concentrations of the compound in this assay were 10000.00, 5000, 2500, 1250, 625, 312.5, 156.25, 78.125 and 39.063 nM.
The assay was conducted in a 96-well plate. On the first day of the assay, Anti-CD3 was added to the 96-well plate and incubated in a 4 °C refrigerator overnight. On the second day of the assay, human Pan T cells were recovered, centrifuged and counted. The cell density was adjusted to 1*10^6 cells/ml. Then, 100 μL of cells were added to the 96-well plate washed with PBS and added with Anti-CD3; according to the experimental design diagram, 50 μL of diluted Anti-CD28 and 50 μL of the diluted compound were added to each well, centrifuged, and the cell plate was placed and incubated in an incubator for 48 hours; after 48 hours, the plate was centrifuged and the supernatant was collected for IL-2 ELISA.
The signal value of light absorption was converted into a multiple. Multiple=sample value/the average value of control wells. The average value of control wells refers to the value measured in wells with DMSO added. EC50 values were calculated by XLFit (version 5.3.1.3) in Excel. Equation: Y=Bottom+(Top−Bottom)/(1+(EC50/X)^HillSlope).

Sequence of HPK1 (Q92918 whole entry): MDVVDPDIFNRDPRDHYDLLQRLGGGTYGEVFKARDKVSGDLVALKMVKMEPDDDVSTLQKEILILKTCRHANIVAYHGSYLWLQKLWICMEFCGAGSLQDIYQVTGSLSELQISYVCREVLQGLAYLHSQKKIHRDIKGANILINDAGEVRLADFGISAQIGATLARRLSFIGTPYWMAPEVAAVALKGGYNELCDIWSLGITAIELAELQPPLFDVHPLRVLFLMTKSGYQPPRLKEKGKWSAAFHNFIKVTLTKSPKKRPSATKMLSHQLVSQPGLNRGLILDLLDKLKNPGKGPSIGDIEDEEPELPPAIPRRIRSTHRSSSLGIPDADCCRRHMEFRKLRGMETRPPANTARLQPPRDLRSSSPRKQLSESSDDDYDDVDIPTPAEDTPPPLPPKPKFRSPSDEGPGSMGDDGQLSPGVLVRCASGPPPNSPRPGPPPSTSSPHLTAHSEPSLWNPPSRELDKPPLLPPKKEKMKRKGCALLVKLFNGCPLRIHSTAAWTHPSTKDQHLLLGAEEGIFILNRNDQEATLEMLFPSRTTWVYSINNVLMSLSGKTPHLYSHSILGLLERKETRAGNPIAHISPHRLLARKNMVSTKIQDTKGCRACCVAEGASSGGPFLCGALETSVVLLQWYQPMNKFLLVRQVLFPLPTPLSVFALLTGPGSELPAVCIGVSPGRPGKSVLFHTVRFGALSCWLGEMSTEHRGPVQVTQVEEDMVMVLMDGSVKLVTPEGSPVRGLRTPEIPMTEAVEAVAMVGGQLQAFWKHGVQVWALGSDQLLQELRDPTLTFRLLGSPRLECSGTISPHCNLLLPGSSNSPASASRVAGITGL
T1 sequence (Q92918 whole entry): as above

Row | SMILES | IC50 (HPK1) [nM] | IC50 [1] [nM] | EC50 [2] [nM]
1 | COc1cccn2c(-c3cc4c(c5c3CCNC5=O)Nc3ccc(N5CCOCC5)cc3C4(C)C)cnc12 [Example 13] | 9.32 | 24.4 | 3.12
2 | CC1(C)c2cc(N3CCOCC3)ccc2Nc2c1cc(-c1cncc(N3CCOCC3)c1)c1c2C(=O)NC1 [Example 85] | 36.2 |  | 69.4
